# In patent publication US20070154567A1, “Use of mercury to treat cancer” (priority 2006, published 2007):
# Values joined by “and” are separate entries in the source; they are usually repeats but may differ in a detail not shown here. Equal values may be shown once.
# Test system: metastatic hepatocellular carcinoma
# Experiment: Oral inorganic mercury (II) treatment of a pet Husky after tumor removal: blood data and clinical follow-up
# Type: in vivo, dog
# Parameters: Corrected Calcium / MCV / MCH / MCHC / Neutrophils, absolute / Bands / Lymphocytes, absolute / Monocytes, absolute / Eosinophils, absolute / Basophils, absolute: unit not given here
# Description: A 10 yrs old female Husky, 54 lbs was diagnosed with metastatic hepatocellular carcinoma. The tumor was surgically removed prior to treatment. The prognosis after the surgery was poor with 1-2 months of life expectancy.
# The 90-day inorganic mercury (II) treatment consisted of two 30-day treatment courses and one 30-day interval period. The formulation contained 1 mM mercury acetate in 20 mM sodium acetate buffer, pH 4.5, with 100 mM sucrose and 150 mM sodium chloride additives. The formulation was introduced orally to the pet three times a day 1 hour before food at 0.5 micromole Hg^2+/kg/day. In the beginning of treatment the dog had high levels of alkaline phosphatase (ALP) and alanine transferase (ALT), two liver enzymes known to be associated with liver tumor progression (de Oliveira e Silva et al., Arq Gastroenterol. 1990, 27(2):83-94). […] On Day 3 ALP and ALT were 1950 U/L and 119 U/L, respectively. On day 30 ALP dropped to 495 U/L, whereas ALT was decreased to 27 U/L. Decreases in ALP and ALT levels were correlated well with the improvement of dog's general condition during the first treatment course. During the second treatment course, according to owner's and veterinarian's notes, the dog continued to show improvement and at the end of the treatment period it acted as a healthy dog. Unfortunately, the owner chose not to take blood tests after day 30.
smiles,measurement,setting,value
"CC(=O)[O-].CC(=O)[O-].[Hg+2] [inorganic mercury (II), mercury acetate]",health / cancer status of the dog,10 months after treatment,remains in good health and is apparently cancer-free
same,ALT (SGPT),Day 3,119 U/L and 119 (H) U/L
same,AST (SGOT),Day 3,30 U/L
same,Albumin,Day 3,3.1 g/dL
same,Albumin/Globulin Ratio,Day 3,1.1
same,Alkaline Phosphatase (ALP),Day 3,1950 U/L and 1950 (H) U/L
same,Amylase,Day 3,369 U/L
same,BUN/Creatinine Ratio,Day 3,17
same,Bands,Day 3,0
same,"Basophils, absolute",Day 3,0
same,CPK,Day 3,161 U/L
same,Calcium,Day 3,9.4 mg/dL
same,Chloride,Day 3,114 mE/L
same,Cholesterol,Day 3,250 mg/dL
same,Corrected Calcium,Day 3,9.8
same,Creatinine,Day 3,1.0 mg/dL
same,"Eosinophils, (%)",Day 3,7%
same,"Eosinophils, absolute",Day 3,812
same,Globulin,Day 3,2.8 g/dL
same,Glucose,Day 3,94 mg/dL
same,Hematocrit,Day 3,43.1%
same,Hemoglobin,Day 3,14.7 g/dL
same,"Lymphocytes, (%)",Day 3,18%
same,"Lymphocytes, absolute",Day 3,2088
same,MCH,Day 3,22.3
same,MCHC,Day 3,34.1
same,MCV,Day 3,65
same,"Monocytes, (%)",Day 3,4%
same,"Monocytes, absolute",Day 3,464
same,"Neutrophils, (%)",Day 3,71%
same,"Neutrophils, absolute",Day 3,8236
same,Phosphorus,Day 3,3.8 mg/dL
same,Platelet count,Day 3,394 10^3/microl
same,Potassium,Day 3,4.5 mE/L
same,RBC,Day 3,6.59 10^6/microl
same,Sodium,Day 3,149 mE/L
same,Total Billirubin,Day 3,0.1 mg/dL
same,Total Protein,Day 3,5.9 g/dL
same,Urea Nitrogen,Day 3,17 mg/dL
same,WBC,Day 3,11.6 10^3/microl
same,ALT (SGPT),Day 9,51 U/L
same,AST (SGOT),Day 9,18 U/L
same,Albumin,Day 9,3.2 g/dL
same,Albumin/Globulin Ratio,Day 9,1.1
same,Alkaline Phosphatase (ALP),Day 9,1368 (H) U/L
same,Amylase,Day 9,348 U/L
same,BUN/Creatinine Ratio,Day 9,8
same,Bands,Day 9,0
same,"Basophils, absolute",Day 9,0
same,CPK,Day 9,119 U/L
same,Calcium,Day 9,9.8 mg/dL
same,Chloride,Day 9,115 mE/L
same,Cholesterol,Day 9,237 mg/dL
same,Corrected Calcium,Day 9,10.1
same,Creatinine,Day 9,1.0 mg/dL
same,"Eosinophils, (%)",Day 9,3%
same,"Eosinophils, absolute",Day 9,405
same,Globulin,Day 9,3.0 g/dL
same,Glucose,Day 9,93 mg/dL
same,Hematocrit,Day 9,53.1%
same,Hemoglobin,Day 9,17.4 g/dL
same,"Lymphocytes, (%)",Day 9,15%
same,"Lymphocytes, absolute",Day 9,2025
same,MCH,Day 9,21.8
same,MCHC,Day 9,32.8
same,MCV,Day 9,67
same,"Monocytes, (%)",Day 9,3%
same,"Monocytes, absolute",Day 9,405
same,"Neutrophils, (%)",Day 9,79%
same,"Neutrophils, absolute",Day 9,10665
same,Phosphorus,Day 9,3.8 mg/dL
same,Platelet count,Day 9,406 (H) 10^3/microl
same,Potassium,Day 9,4.7 mE/L
same,RBC,Day 9,7.97 10^6/microl
same,Sodium,Day 9,152 mE/L
same,Total Billirubin,Day 9,0.1 mg/dL
same,Total Protein,Day 9,6.2 g/dL
same,Urea Nitrogen,Day 9,8 mg/dL
same,WBC,Day 9,13.5 10^3/microl
same,ALT (SGPT),Day 30,27 U/L
same,AST (SGOT),Day 30,26 U/L
same,Albumin,Day 30,3.4 g/dL
same,Albumin/Globulin Ratio,Day 30,1.1
same,Alkaline Phosphatase (ALP),Day 30,495 U/L and 495 (H) U/L
same,Amylase,Day 30,349 U/L
same,BUN/Creatinine Ratio,Day 30,16
same,Bands,Day 30,0
same,"Basophils, absolute",Day 30,0
same,CPK,Day 30,488 U/L
same,Calcium,Day 30,10.3 mg/dL
same,Chloride,Day 30,117 mE/L
same,Cholesterol,Day 30,248 mg/dL
same,Corrected Calcium,Day 30,10.4
same,Creatinine,Day 30,0.9 mg/dL
same,"Eosinophils, (%)",Day 30,6%
same,"Eosinophils, absolute",Day 30,504
same,Globulin,Day 30,3.0 g/dL
same,Glucose,Day 30,113 mg/dL
same,Hematocrit,Day 30,50.3%
same,Hemoglobin,Day 30,15.8 g/dL
same,"Lymphocytes, (%)",Day 30,17%
same,"Lymphocytes, absolute",Day 30,1428
same,MCH,Day 30,20.9
same,MCHC,Day 30,31.4
same,MCV,Day 30,66
same,"Monocytes, (%)",Day 30,4%
same,"Monocytes, absolute",Day 30,336
same,"Neutrophils, (%)",Day 30,73%
same,"Neutrophils, absolute",Day 30,6132
same,Phosphorus,Day 30,3.3 mg/dL
same,Platelet count,Day 30,385 10^3/microl
same,Potassium,Day 30,4.1 mE/L
same,RBC,Day 30,7.57 10^6/microl
same,Sodium,Day 30,152 mE/L
same,Total Billirubin,Day 30,0.1 mg/dL
same,Total Protein,Day 30,6.4 g/dL
same,Urea Nitrogen,Day 30,14 mg/dL
same,WBC,Day 30,8.4 10^3/microl
same,levels of ALP and ALT,during the first treatment course,dramatically decreased
